Legend:
green foxtail [1] = assay: Test C postemergence; type: in vivo, Setaria viridis; conditions: 10 days
Summary of the method: (§1)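 Seeds sown in loam soil–sand blend received a directed preemergence soil spray of test chemical in non-phytotoxic solvent with surfactant; postemergence plants (2–10 cm, one- to two-leaf stage) were sprayed with the same formulation. Greenhouse-held 10 days, then visually rated for injury versus untreated controls, 0 (no effect) to 100 (complete control).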

ragweed [2] = assay: Test C postemergence; type: in vivo, Ambrosia artemisiifolia; conditions: 10 days
Summary of the method: as §1

soybean [3] = assay: Test C postemergence; type: in vivo, Glycine max; conditions: 10 days
Summary of the method: as §1

oat, wild [4] = assay: Test C preemergence; type: in vivo, Avena fatua; conditions: for Plant response rating, Oat, Wild: Preemergence; for Oat, Wild plant response rating: preemergence
Summary of the method: as §1

oat, wild [5] = assay: Test C postemergence; type: in vivo, Avena fatua; conditions: 10 days
Summary of the method: as §1

corn [6] = assay: Test C preemergence; type: in vivo, Zea mays; conditions: for Plant response rating, Corn: Preemergence; for Corn plant response rating: preemergence
Summary of the method: as §1

barnyardgrass [7] = assay: Test C preemergence; type: in vivo, Echinochloa crusgalli; conditions: for Barnyardgrass plant response rating: preemergence; for Plant response rating, Barnyardgrass: Preemergence
Summary of the method: as §1

rice = assay: Test D flooded paddy test; type: in vivo, Oryza sativa; conditions: 250 g ai/ha, applied to paddy water, visual rating after 13 to 14 days, scale 0 to 100 (0 no effect, 100 complete control)
Summary of the method: (§2)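 Seedlings reached the 2-leaf stage, then pots were flooded to 3 cm over the soil surface. Compound was applied into the water, depth was maintained, and plants stayed in the greenhouse 13 to 14 days before visual scoring (0–100) relative to controls.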

pigweed, palmer [8] = assay: Test C preemergence; type: in vivo, Amaranthus palmeri; conditions: for Plant response rating, Pigweed, Palmer: Preemergence; for Pigweed, Palmer plant response rating: preemergence
Summary of the method: as §1

blackgrass [9] = assay: Test C preemergence; type: in vivo, Alopecurus myosuroides; conditions: for Plant response rating, Blackgrass: Preemergence; for Blackgrass plant response rating: preemergence
Summary of the method: as §1

blackgrass [10] = assay: Test C postemergence; type: in vivo, Alopecurus myosuroides; conditions: 10 days
Summary of the method: as §1

kochia [11] = assay: Test C preemergence; type: in vivo, Bassia scoparia; conditions: for Plant response rating, Kochia: Preemergence; for Kochia plant response rating: preemergence
Summary of the method: as §1

ryegrass, Italian [12] = assay: Test C preemergence; type: in vivo, Lolium multiflorum; conditions: for Plant response rating, Ryegrass, Italian: Preemergence; for Ryegrass, Italian plant response rating: preemergence
Summary of the method: as §1

galium = assay: Test C postemergence; type: in vivo, Galium aparine; conditions: 10 days
Summary of the method: as §1

horseweed = assay: Test C postemergence; type: in vivo, Erigeron canadensis; conditions: 10 days
Summary of the method: as §1

barnyardgrass [13] = assay: Test C postemergence; type: in vivo, Echinochloa crusgalli; conditions: 10 days
Summary of the method: as §1

kochia [14] = assay: Test C postemergence; type: in vivo, Bassia scoparia; conditions: 10 days
Summary of the method: as §1

pigweed, palmer [15] = assay: Test C postemergence; type: in vivo, Amaranthus palmeri; conditions: 10 days
Summary of the method: as §1

green foxtail [16] = assay: Test C preemergence; type: in vivo, Setaria viridis; conditions: for Plant response rating, Foxtail, Green: Preemergence; for Foxtail, Green plant response rating: preemergence
Summary of the method: as §1

soybean [17] = assay: Test C preemergence; type: in vivo, Glycine max; conditions: for Plant response rating, Soybean: Preemergence; for Soybean plant response rating: preemergence
Summary of the method: as §1

ryegrass, Italian [18] = assay: Test C postemergence; type: in vivo, Lolium multiflorum; conditions: 10 days
Summary of the method: as §1

wheat [19] = assay: Test C postemergence; type: in vivo, Triticum aestivum; conditions: 10 days
Summary of the method: as §1

sedge, umbrella = assay: Test D flooded paddy test; type: in vivo, Cyperus difformis; conditions: 250 g ai/ha, applied to paddy water, visual rating after 13 to 14 days, scale 0 to 100 (0 no effect, 100 complete control)
Summary of the method: as §2

barnyardgrass [20] = assay: Test D flooded paddy test; type: in vivo, Echinochloa crus-galli; conditions: 250 g ai/ha, applied to paddy water, visual rating after 13 to 14 days, scale 0 to 100 (0 no effect, 100 complete control)
Summary of the method: as §2

ragweed [21] = assay: Test C preemergence; type: in vivo, Ambrosia artemisiifolia; conditions: for Plant response rating, Ragweed: Preemergence; for Ragweed plant response rating: preemergence
Summary of the method: as §1

ducksalad = assay: Test D flooded paddy test; type: in vivo, Heteranthera limosa; conditions: 250 g ai/ha, applied to paddy water, visual rating after 13 to 14 days, scale 0 to 100 (0 no effect, 100 complete control)
Summary of the method: as §2

corn [22] = assay: Test C postemergence; type: in vivo, Zea mays; conditions: 10 days
Summary of the method: as §1

wheat [23] = assay: Test C preemergence; type: in vivo, Triticum aestivum; conditions: for Plant response rating, Wheat: Preemergence; for Wheat plant response rating: preemergence
Summary of the method: as §1

[24] = 125 g ai/ha, postemergence, 0 to 100 scale, 0 no effect, 100 complete control
[25] = Postemergence, 500 g ai/ha, visual 0 to 100 scale (0 no effect, 100 complete control)
[26] = 500 g ai/ha, visual rating after 10 days, 0 to 100 scale (0 no effect, 100 complete control)
[27] = Test C, 125 g ai/ha, 0 to 100 scale (0 no effect, 100 complete control)
[28] = 500 g ai/ha, postemergence, 0 to 100 scale (0 no effect, 100 complete control)
[29] = Postemergence, 125 g ai/ha, 0 to 100 scale (0 no effect, 100 complete control)
[30] = 500 g ai/ha, 0 to 100 scale (0 no effect, 100 complete control)
[31] = 125 g ai/ha, 0 to 100 scale, 0 no effect, 100 complete control

With `C[C@H]1CN(C(=O)c2cc(-n3cnc(C4CCC4)n3)cc3c2OCCO3)c2cccc(Cl)c2O1` [Compound 157] the “Plant response rating, Foxtail, Green” value (green foxtail [1]; [24]) was 70, the “Plant response rating, Foxtail, Green” value (green foxtail [1]; [25]) was 90 and the “Plant response rating, Ragweed” value (ragweed [2]; [24]) was 100. The “Plant response rating, Ragweed” value (ragweed [2]; [25]) was 100, the “Plant response rating, Soybean” value (soybean [3]; [24]) was 100 and the “Plant response rating, Soybean” value (soybean [3]; [25]) was 100. The “Plant response rating, Oat, Wild” value (oat, wild [4]; [26]) was 50, the “Oat, Wild plant response rating” value (oat, wild [4]; [27]) was 0 and the “Plant response rating, Oat, Wild” value (oat, wild [5]; [24]) was 20. For the same compound, the “Plant response rating, Oat, Wild” value (oat, wild [5]; [25]) was 20, the “Plant response rating, Corn” value (corn [6]; [26]) was 0 and the “Corn plant response rating” value (corn [6]; [27]) was 0. For the same compound, the “Barnyardgrass plant response rating” value (barnyardgrass [7]; 125 g ai/ha, 0 to 100 scale (0 no effect, 100 complete control)) was 50, the “Plant response rating, Barnyardgrass” value (barnyardgrass [7]; [26]) was 90 and the “Plant response rating, Rice (Flood)” value (rice) was 20. For the same compound, the “Plant response rating, Pigweed, Palmer” value (pigweed, palmer [8]; [26]) was 100, the “Pigweed, Palmer plant response rating” value (pigweed, palmer [8]; [27]) was 100 and the “Plant response rating, Blackgrass” value (blackgrass [9]; [26]) was 30. The “Blackgrass plant response rating” value (blackgrass [9]; [27]) was 30, the “Plant response rating, Blackgrass” value (blackgrass [10]; [24]) was 60 and the “Plant response rating, Blackgrass” value (blackgrass [10]; [25]) was 70. The “Plant response rating, Kochia” value (kochia [11]; [26]) was 90, the “Kochia plant response rating” value (kochia [11]; [27]) was 20 and the “Plant response rating, Ryegrass, Italian” value (ryegrass, Italian [12]; [26]) was 90. For the same compound, the “Ryegrass, Italian plant response rating” value (ryegrass, Italian [12]; [27]) was 70, the “Plant response rating, Galium” value (galium; [24]) was 100 and the “Plant response rating, Galium” value (galium; [25]) was 100. The “Plant response rating, Horseweed” value (horseweed; [24]) was 30, the “Plant response rating, Horseweed” value (horseweed; [25]) was 90 and the “Plant response rating, Barnyardgrass” value (barnyardgrass [13]; [24]) was 30. The “Plant response rating, Barnyardgrass” value (barnyardgrass [13]; [25]) was 70, the “Plant response rating, Kochia” value (kochia [14]; [24]) was 90 and the “Plant response rating, Kochia” value (kochia [14]; [25]) was 100. For the same compound, the “Plant response rating, Pigweed, Palmer” value (pigweed, palmer [15]; [24]) was 90, the “Plant response rating, Pigweed, Palmer” value (pigweed, palmer [15]; [25]) was 100 and the “Plant response rating, Foxtail, Green” value (green foxtail [16]; [26]) was 100. For the same compound, the “Foxtail, Green plant response rating” value (green foxtail [16]; [27]) was 100, the “Plant response rating, Soybean” value (soybean [17]; [26]) was 60 and the “Soybean plant response rating” value (soybean [17]; [27]) was 50. For the same compound, the “Plant response rating, Ryegrass, Italian” value (ryegrass, Italian [18]; [24]) was 30, the “Plant response rating, Ryegrass, Italian” value (ryegrass, Italian [18]; [25]) was 80 and the “Plant response rating, Wheat” value (wheat [19]; [24]) was 20. The “Plant response rating, Wheat” value (wheat [19]; [25]) was 30, the “Plant response rating, Sedge, Umbrella (Flood)” value (sedge, umbrella) was 45 and the “Plant response rating, Barnyardgrass (Flood)” value (barnyardgrass [20]) was 15. For the same compound, the “Plant response rating, Ragweed” value (ragweed [21]; [26]) was 80, the “Ragweed plant response rating” value (ragweed [21]; [27]) was 90 and the “Plant response rating, Ducksalad (Flood)” value (ducksalad) was 0. The “Plant response rating, Corn” value (corn [22]; [24]) was 10, the “Plant response rating, Corn” value (corn [22]; [25]) was 20 and the “Plant response rating, Wheat” value (wheat [23]; [26]) was 30. The “Wheat plant response rating” value (wheat [23]; [27]) was 0.

`Cc1ncn(-c2ccc(C)c(C(=O)N3CC(C(F)(F)F)Oc4c(Cl)cccc43)c2)n1` (centres unmarked) [Compound 349] was tested, and the “Plant response rating, Foxtail, Green” value (green foxtail [1]; [28]) was 90, the “Plant response rating, Foxtail, Green” value (green foxtail [1]; [29]) was 70 and the “Plant response rating, Ragweed” value (ragweed [2]; [28]) was 40. For the same compound, the “Plant response rating, Ragweed” value (ragweed [2]; [29]) was 30, the “Plant response rating, Soybean” value (soybean [3]; [28]) was 100 and the “Plant response rating, Soybean” value (soybean [3]; [29]) was 100. For the same compound, the “Oat, Wild plant response rating” value (oat, wild [4]; [30]) was 90, the “Plant response rating, Oat, Wild” value (oat, wild [4]; [31]) was 20 and the “Plant response rating, Oat, Wild” value (oat, wild [5]; [28]) was 70. The “Plant response rating, Oat, Wild” value (oat, wild [5]; [29]) was 30, the “Corn plant response rating” value (corn [6]; [30]) was 60 and the “Plant response rating, Corn” value (corn [6]; [31]) was 40. The “Barnyardgrass plant response rating” value (barnyardgrass [7]; [30]) was 100, the “Plant response rating, Barnyardgrass” value (barnyardgrass [7]; [31]) was 70 and the “Plant response rating, Rice (Flood)” value (rice) was 0. For the same compound, the “Pigweed, Palmer plant response rating” value (pigweed, palmer [8]; [30]) was 100, the “Plant response rating, Pigweed, Palmer” value (pigweed, palmer [8]; [31]) was 100 and the “Blackgrass plant response rating” value (blackgrass [9]; [30]) was 80. The “Plant response rating, Blackgrass” value (blackgrass [9]; [31]) was 50, the “Plant response rating, Blackgrass” value (blackgrass [10]; [28]) was 100 and the “Plant response rating, Blackgrass” value (blackgrass [10]; [29]) was 90. For the same compound, the “Kochia plant response rating” value (kochia [11]; [30]) was 90, the “Plant response rating, Kochia” value (kochia [11]; [31]) was 80 and the “Ryegrass, Italian plant response rating” value (ryegrass, Italian [12]; [30]) was 100. The “Plant response rating, Ryegrass, Italian” value (ryegrass, Italian [12]; [31]) was 100, the “Plant response rating, Galium” value (galium; [28]) was 100 and the “Plant response rating, Galium” value (galium; [29]) was 100. For the same compound, the “Plant response rating, Horseweed” value (horseweed; [28]) was 50, the “Plant response rating, Horseweed” value (horseweed; [29]) was 10 and the “Plant response rating, Barnyardgrass” value (barnyardgrass [13]; [28]) was 90. For the same compound, the “Plant response rating, Barnyardgrass” value (barnyardgrass [13]; [29]) was 30, the “Plant response rating, Kochia” value (kochia [14]; [28]) was 90 and the “Plant response rating, Kochia” value (kochia [14]; [29]) was 80. For the same compound, the “Plant response rating, Pigweed, Palmer” value (pigweed, palmer [15]; [28]) was 90, the “Plant response rating, Pigweed, Palmer” value (pigweed, palmer [15]; [29]) was 50 and the “Foxtail, Green plant response rating” value (green foxtail [16]; [30]) was 100. The “Plant response rating, Foxtail, Green” value (green foxtail [16]; [31]) was 100, the “Soybean plant response rating” value (soybean [17]; [30]) was 100 and the “Plant response rating, Soybean” value (soybean [17]; [31]) was 50. For the same compound, the “Plant response rating, Ryegrass, Italian” value (ryegrass, Italian [18]; [28]) was 80, the “Plant response rating, Ryegrass, Italian” value (ryegrass, Italian [18]; [29]) was 50 and the “Plant response rating, Wheat” value (wheat [19]; [28]) was 80. For the same compound, the “Plant response rating, Wheat” value (wheat [19]; [29]) was 30, the “Plant response rating, Sedge, Umbrella (Flood)” value (sedge, umbrella) was 95 and the “Plant response rating, Barnyardgrass (Flood)” value (barnyardgrass [20]) was 0. For the same compound, the “Ragweed plant response rating” value (ragweed [21]; [30]) was 80, the “Plant response rating, Ragweed” value (ragweed [21]; [31]) was 20 and the “Plant response rating, Ducksalad (Flood)” value (ducksalad) was 0. For the same compound, the “Plant response rating, Corn” value (corn [22]; [28]) was 90, the “Plant response rating, Corn” value (corn [22]; [29]) was 80 and the “Wheat plant response rating” value (wheat [23]; [30]) was 70. For the same compound, the “Plant response rating, Wheat” value (wheat [23]; [31]) was 20.
